From ChEMBL document CHEMBL1141755, “Flavonoids from the stem of Eriophorum scheuchzeri” (J Nat Prod, 2005) come the findings set out here.

Structures are written as SMILES. The source made the active and inactive calls. The rule behind the calls is not given here.

For assay [1], the system named is Candida albicans. Nature of the assay: Antifungal activity against Candida albicans at 5 ug after 3 days by MTT assay. The assay is classed as functional, organism-based. For orientation: Tetrazolium assays rely on reduction of a dye to a coloured formazan, in cell work by metabolically active cells.
Assay [2] has as its system Cladosporium cucumerinum. Nature of the assay: Antifungal activity against Cladosporium cucumerinum at 1 ug after 3 days by MTT assay. The assay is classed as functional, organism-based.
In assay [3] the test system is Radical scavenging activity. Nature of the assay: Antioxidant activity assessed as DPPH radical scavenging activity at 5 ug. The format is functional. In general terms: The DPPH test is a chemical assay of radical scavenging.
Assay [4] concerns Cladosporium cucumerinum. Kind of assay: Antifungal activity against Cladosporium cucumerinum at 5 ug after 3 days by MTT assay. The assay is classed as functional, organism-based.
In assay [5] the test system is Cladosporium cucumerinum. Kind of assay: Antifungal activity against Cladosporium cucumerinum at 10 ug after 3 days by MTT assay. The assay is classed as functional, organism-based.
Assay [6] relates to Radical scavenging activity. Nature of the assay: Antioxidant activity assessed as DPPH radical scavenging activity at 1 ug. The format is functional.
Assay [7] deals with Candida albicans. Nature of the assay: Antifungal activity against Candida albicans at 10 ug after 3 days by MTT assay. The format is functional, organism-based.
Assay [8] relates to Radical scavenging activity. Kind of assay: Antioxidant activity assessed as DPPH radical scavenging activity at 10 ug. The format is functional.

Consider `COc1cc(O)c2c(=O)c(-c3ccc(O)c(C)c3O)coc2c1`, for which the outcome in assay [1], in assay [3], in assay [5], in assay [6], in assay [7] and in assay [8] was Active. Further, the result in assay [2] and in assay [4] was inactive.
In the case of `COc1cc(O)c2c(=O)c(-c3ccc(O)c(C)c3OC)coc2c1`, the result in assay [1], in assay [3], in assay [6], in assay [7] and in assay [8] was inactive. Also, the result in assay [2], in assay [4] and in assay [5] was Active.
Turning to `COc1cc(O)c2c(=O)c(-c3ccc(O)cc3OC)coc2c1`, the outcome in assay [1], in assay [2], in assay [4], in assay [5], in assay [6] and in assay [7] was inactive. In addition, the result in assay [3] and in assay [8] was Active.
For the compound `CC1(C)C=Cc2c(cc3occ(-c4ccc(O)cc4O)c(=O)c3c2O)O1`, the outcome in assay [1], in assay [2], in assay [3], in assay [4], in assay [5] and in assay [6] was Active. The outcome in assay [7] and in assay [8] was Active.
As to `C=C(C)C(O)Cc1c(O)cc(O)c2c1OC(c1ccc(O)cc1)CC2=O` (centres undefined), the outcome in assay [1], in assay [3], in assay [4], in assay [5], in assay [6] and in assay [7] was Active. Moreover, the outcome in assay [8] was Active. For the same compound, the result in assay [2] was inactive.
Take `CC1(C)C=Cc2c(cc(O)c3c(=O)c(-c4ccc(O)cc4O)coc23)O1`: the result in assay [1], in assay [2], in assay [3], in assay [4], in assay [5] and in assay [6] was Active. Also, the outcome in assay [7] and in assay [8] was Active.
On to `COc1cc(O)c2c(=O)c(-c3ccc(O)cc3O)coc2c1`, for which the result in assay [1], in assay [3], in assay [6], in assay [7] and in assay [8] was inactive. The outcome in assay [2], in assay [4] and in assay [5] was Active.
Take `COc1cc(-c2cc(=O)c3c(O)cc(O)cc3o2)cc(OC)c1O`: the result in assay [1], in assay [2], in assay [4], in assay [5] and in assay [7] was inactive. Besides, the result in assay [3], in assay [6] and in assay [8] was Active.
